In ChEMBL document CHEMBL3091433, “Structure-based design of substituted hexafluoroisopropanol-arylsulfonamides as modulators of RORc” (Bioorg Med Chem Lett, 2013) one finds EC50 and Imax data, which are given here for three compounds.

One experiment has as its target T1, Bile acid receptor (Homo sapiens, UniProt Q96RI1).
T1 sequence (Q96RI1 whole entry): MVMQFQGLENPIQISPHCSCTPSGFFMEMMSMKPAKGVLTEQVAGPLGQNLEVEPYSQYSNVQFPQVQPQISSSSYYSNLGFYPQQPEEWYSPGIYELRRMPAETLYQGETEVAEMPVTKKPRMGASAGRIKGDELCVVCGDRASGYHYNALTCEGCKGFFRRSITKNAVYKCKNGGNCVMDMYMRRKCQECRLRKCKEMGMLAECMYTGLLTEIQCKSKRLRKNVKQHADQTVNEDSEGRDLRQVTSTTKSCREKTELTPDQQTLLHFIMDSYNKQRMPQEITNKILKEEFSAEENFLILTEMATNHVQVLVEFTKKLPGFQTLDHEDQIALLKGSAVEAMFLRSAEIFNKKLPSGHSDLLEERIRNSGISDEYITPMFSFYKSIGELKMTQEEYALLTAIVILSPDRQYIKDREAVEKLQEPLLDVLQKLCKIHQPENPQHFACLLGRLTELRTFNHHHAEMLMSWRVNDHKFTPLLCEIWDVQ
The experiment can be described thus: Agonist activity at GAL4-fused human FXR expressed in HEK293T cells assessed as activation of basal transcriptional activity after 20 hrs by dual-glo luciferase reporter gene assay. The format is cell-based, HEK-293T.

For experiment [1], the target named is T2, Nuclear receptor ROR-beta (Homo sapiens, UniProt Q92753).
T2 sequence (Q92753 whole entry): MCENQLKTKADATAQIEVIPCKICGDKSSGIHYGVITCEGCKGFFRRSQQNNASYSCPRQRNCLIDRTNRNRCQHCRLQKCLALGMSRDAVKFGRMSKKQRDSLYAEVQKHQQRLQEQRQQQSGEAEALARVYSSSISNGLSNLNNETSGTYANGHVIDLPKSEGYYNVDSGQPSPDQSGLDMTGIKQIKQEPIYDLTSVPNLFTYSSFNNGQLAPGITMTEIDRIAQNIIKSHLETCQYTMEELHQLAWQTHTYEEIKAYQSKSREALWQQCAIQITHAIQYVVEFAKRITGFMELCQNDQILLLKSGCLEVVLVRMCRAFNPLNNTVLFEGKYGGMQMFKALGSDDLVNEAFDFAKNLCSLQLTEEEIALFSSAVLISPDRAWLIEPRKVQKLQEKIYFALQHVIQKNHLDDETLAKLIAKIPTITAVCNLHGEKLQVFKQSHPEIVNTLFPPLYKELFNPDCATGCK
The experiment can be described thus: Inverse agonist activity at GAL4-fused human RORb expressed in HEK293T cells assessed as suppression of basal transcriptional activity after 20 hrs by dual-glo luciferase reporter gene assay. The format is cell-based, HEK-293T. (In general: Reporter assays use an easily measured gene product as a stand-in for the process of interest.)

In experiment [2] the test system is PBMC. The experiment can be described thus: Cytotoxicity against human PBMC assessed as effect on cell physiology after 48 hrs by CellTiter-Glo assay. In general terms: ATP-based viability assays read luminescence as a measure of living cells.
Experiment [3] has as its system PBMC. The experiment can be described thus: Inhibition of IFNgamma production in human PBMC after 48 hrs by Sandwich ELISA. On the technique in general: An ELISA detects its analyte on a solid surface through an enzyme-linked reagent.
The subject of experiment [4] is PBMC. The experiment can be described thus: Antiinflammatory activity in human PBMC assessed as inhibition of IL-17 production after 48 hrs by Sandwich ELISA relative to control. The format is functional.
Experiment [5] has as its system PBMC. The experiment can be described thus: cells. The following applies: Homo sapiens, 48 h.

The EC50 is the concentration needed to bring the measured effect to its halfway point. On to `CCN(c1ccc(C(O)(C(F)(F)F)C(F)(F)F)cc1)S(=O)(=O)c1ccccc1`, for which the concentration for a half-maximal effect (EC50) came out at 9 µM on Bile acid receptor and 4 µM in experiment [1].

For the compound `N#Cc1ccc(S(=O)(=O)N(CC(F)(F)F)c2ccc(C(O)(C(F)(F)F)C(F)(F)F)cc2)cc1`, the EC50 is above 20 µM in the experiment on PBMC [2]; above 20 µM with PBMC [3]; 3 µM at Bile acid receptor; 5 µM in experiment [1]; 1 µM with PBMC [5]. In addition, the Imax in the experiment with PBMC [4] came to 74%.

For the compound `O=S(=O)(c1ccc(F)cc1)N(CC(F)(F)F)c1ccc(C(O)(C(F)(F)F)C(F)(F)F)cc1`, the concentration for a half-maximal effect (EC50) in the experiment on PBMC [2] is above 20 µM; in the experiment with PBMC [3], above 20 µM; on Bile acid receptor, 1 µM; in experiment [1], 6 µM; in the experiment on PBMC [5] it was 0.132 µM. Moreover, the Imax in the experiment with PBMC [4] was 83%.
